Data reported in the NIST ThermoML archive (doi:10.1016/j.jct.2010.08.021).

Experiment: mn = molality of the nth substance listed, in mol/kg
Settings: 101 kPa, Liquid; for speed of sound: Sing-around technique in a fixed-path interferometer; for mass density: Vibrating tube method

NCC(=O)O [2-aminoacetic acid] + O
Settings | mass density, 288.15 K [kg/m3] | mass density, 293.15 K [kg/m3] | mass density, 298.15 K [kg/m3] | speed of sound, 288.15 K [m/s] | speed of sound, 293.15 K [m/s] | speed of sound, 298.15 K [m/s]
m1 = 0.0303 | 1000.1 | 999.187 | – | 1468.3 | 1484.4 | 1498.6
m1 = 0.0407 | 1000.43 | 999.52 | 998.344 | 1468.9 | 1484.9 | 1499.1
m1 = 0.0487 | 1000.69 | 999.773 | – | 1469.4 | 1485.4 | 1499.5
m1 = 0.0549 | 1000.89 | 999.972 | 998.79 | 1469.7 | 1485.7 | 1499.9
m1 = 0.0649 | 1001.22 | 1000.29 | 999.104 | 1470.3 | 1486.2 | 1500.4
m1 = 0.066 | 1001.25 | 1000.32 | 999.138 | 1470.3 | 1486.3 | 1500.4
m1 = 0.0799 | 1001.7 | 1000.77 | 999.58 | 1471.1 | 1487 | 1501.2
m1 = 0.0959 | 1002.22 | 1001.28 | 1000.09 | 1472 | 1487.9 | 1502
m1 = 0.1125 | 1002.76 | 1001.81 | 1000.61 | 1472.9 | 1488.8 | 1502.9
m1 = 0.1349 | 1003.48 | 1002.52 | 1001.31 | 1474.1 | 1489.9 | 1504
m1 = 0.1608 | 1004.3 | 1003.34 | 1002.12 | 1475.5 | 1491.3 | 1505.3
m1 = 0.1908 | 1005.26 | 1004.28 | – | 1477.2 | 1493 | 1506.9
m1 = 0.2165 | 1006.07 | 1005.08 | – | 1478.6 | 1494.4 | 1508.2
m1 = 0.2303 | 1006.51 | 1005.52 | – | 1479.4 | 1495.1 | 1508.9
m1 = 0.2506 | 1007.15 | 1006.15 | – | 1480.5 | 1496.2 | 1510
m1 = 0.2735 | 1007.87 | 1006.86 | – | 1481.8 | 1497.4 | 1511.2
